The source of these data is patent US10023557B2 (LifeSci Pharmaceuticals, Inc., priority 2015, dated 2018).

human plasma kallikrein, sequence (P03952 391-638): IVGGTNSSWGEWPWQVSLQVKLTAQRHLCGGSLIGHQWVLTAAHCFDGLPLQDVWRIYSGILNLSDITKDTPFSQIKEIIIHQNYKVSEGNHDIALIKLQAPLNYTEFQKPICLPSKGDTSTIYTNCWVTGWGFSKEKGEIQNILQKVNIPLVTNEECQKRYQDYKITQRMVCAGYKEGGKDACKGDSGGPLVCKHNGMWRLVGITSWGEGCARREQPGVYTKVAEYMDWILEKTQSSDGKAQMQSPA
human plasma kallikrein, sequence (P03952 20-390 partner): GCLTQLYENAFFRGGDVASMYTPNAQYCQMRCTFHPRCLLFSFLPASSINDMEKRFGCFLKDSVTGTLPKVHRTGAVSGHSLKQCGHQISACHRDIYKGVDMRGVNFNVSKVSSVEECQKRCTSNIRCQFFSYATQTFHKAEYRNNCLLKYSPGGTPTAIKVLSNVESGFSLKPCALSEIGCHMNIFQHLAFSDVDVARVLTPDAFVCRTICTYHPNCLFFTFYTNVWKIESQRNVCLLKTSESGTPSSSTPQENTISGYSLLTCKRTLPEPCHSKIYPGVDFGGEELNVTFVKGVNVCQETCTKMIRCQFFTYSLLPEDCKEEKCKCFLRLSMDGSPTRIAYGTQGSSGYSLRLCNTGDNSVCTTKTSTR

In this test the target is human plasma kallikrein (Homo sapiens (Human), UniProt P03952). Kind of test: In vitro enzyme inhibition of human plasma kallikrein (PFR-AMC cleavage). The class given is biochemical. Particulars: Pro-Phe-Arg-AMC substrate, 37° C., read-out: hPK IC50. Here is the method:
The ability of the compounds disclosed herein to inhibit human plasma kallikrein activity was quantified according to the procedures below.
A 10 mM solution of the test compound was made in DMSO. […] A control tube containing only DMSO is included. 16 μL of each compound test solution was combined with 384 μL of assay buffer (50 mM Tris-HCl pH 7.5, 150 mM NaCl, 0.01% Triton X-100) to yield a “4× test compound buffer stock”.
These solutions are hereby referred to as 4× hPK and 2×PFR-AMC, respectively.
50 μL was removed from this mixture and placed into duplicate wells on a Microfluor 1Black U-bottom microtiter plate (Thermo Scientific). This plate was incubated for 5 minutes at 37° C. To each well, 50 μL of pre-warmed 2×PFR-AMC was added to start the enzymatic reaction. Cleavage of PFR-AMC was monitored in a Biotek Synergy H4 reader set at 37° C. Readings are taken every 43 seconds for 1 hour. […] The IC50 is calculated using the Gen5 (Biotek Instruments).
The ability of the compounds in Table 3 to inhibit human plasma kallikrein activity was determined.
`CCc1cnc2ccc(Cc3cc(C(=O)NCc4cc5c(Cl)c[nH]c5cc4F)ccn3)cc2c1` [Example 280, N-((3-chloro-6-fluoro-1H-indol-5-yl)methyl)-2-((3-ethylquinolin-6-yl)methyl)isonicotinamide]: the IC50 is below 100 nM.

Take `CCc1cnc2ccc(Cc3cc(C(=O)NCc4cnc5[nH]cc(Cl)c5c4)ccn3)cc2c1` [Example 281, N-((3-chloro-1H-pyrrolo[2,3-b]pyridin-5-yl)methyl)-2-((3-ethylquinolin-6-yl)methyl)isonicotinamide]: the IC50 is below 100 nM.

As to `CCc1cnc2ccc(Cc3cc(C(=O)NCc4ccc5[nH]cc(Cl)c5c4F)ccn3)cc2c1` [Example 282, N-((3-chloro-4-fluoro-1H-indol-5-yl)methyl)-2-((3-ethylquinolin-6-yl)methyl)isonicotinamide], the IC50 is below 100 nM.

On to `CCc1cnc2ccc(Cc3cc(C(=O)NCc4n[nH]c5ccc(Cl)cc45)ccn3)cc2c1` [Example 284, N-((5-chloro-1H-indazol-3-yl)methyl)-2-((3-ethylquinolin-6-yl)methyl)isonicotinamide], for which the IC50 was below 100 nM.

As to `CCc1cnc2ccc(Cc3cc(C(=O)NCc4ccc(N)nc4C)ccn3)cc2c1` [Example 285, N-((6-amino-2-methylpyridin-3-yl)methyl)-2-((3-ethylquinolin-6-yl)methyl)isonicotinamide], the IC50 was below 100 nM.

In the case of `O=C(NCc1cc2c(Cl)c[nH]c2cc1F)c1ccnc(Cc2ccc3ncc(N4CCOCC4)cc3c2)c1` [Example 292, N-((3-chloro-6-fluoro-1H-indol-5-yl)methyl)-2-((3-morpholinoquinolin-6-yl)methyl)isonicotinamide], the IC50 is 1000 to 10000 nM.

On to `Nc1nccc2cc(CNC(=O)c3ccnc(Cc4ccc5ncc(N6CCOCC6)cc5c4)c3)ccc12` [Example 293, N-((1-aminoisoquinolin-6-yl)methyl)-2-((3-morpholinoquinolin-6-yl)methyl)isonicotinamide], for which the IC50 fell in the range of 1000 to 10000 nM.

Consider `O=C(NCc1cnc2[nH]cc(Cl)c2c1)c1ccnc(Cc2ccc3ncc(N4CCOCC4)cc3c2)c1` [Example 294, N-((3-chloro-1H-pyrrolo[2,3-b]pyridin-5-yl)methyl)-2-((3-morpholinoquinolin-6-yl)methyl)isonicotinamide], for which the IC50 is 1000 to 10000 nM.

For `O=C(NCc1n[nH]c2ccc(Cl)cc12)c1ccnc(Cc2ccc3ncc(N4CCOCC4)cc3c2)c1` [Example 295, N-((5-chloro-1H-indazol-3-yl)methyl)-2-((3-morpholinoquinolin-6-yl)methyl)isonicotinamide], the IC50 was 1000 to 10000 nM.

In the case of `COC(c1ccc2ncc(Cl)cc2c1)c1cc(C(=O)NCc2c(C)cc(N)nc2C)ccn1` (stereo not shown) [Example 296, N-((6-amino-2,4-dimethylpyridin-3-yl)methyl)-2-((3-chloroquinolin-6-yl)(methoxy)methyl)isonicotinamide], the 50% inhibitory concentration (IC50) is below 100 nM.

`Nc1cnc2ccc(Cc3cc(C(=O)NCc4cc5c(Cl)c[nH]c5cc4F)ccn3)cc2c1` [Example 297, 2-((3-aminoquinolin-6-yl)methyl)-N-((3-chloro-6-fluoro-1H-indol-5-yl)methyl)isonicotinamide]: the half-inhibitory concentration (IC50) was 100 to 1000 nM.

As for `Nc1cnc2ccc(Cc3cc(C(=O)NCc4ccc5c(N)nccc5c4)ccn3)cc2c1` [Example 298, N-((1-aminoisoquinolin-6-yl)methyl)-2-((3-aminoquinolin-6-yl)methyl)isonicotinamide], the IC50 is 100 to 1000 nM.

On to `Nc1cnc2ccc(Cc3cc(C(=O)NCc4n[nH]c5ccc(Cl)cc45)ccn3)cc2c1` [Example 299, 2-((3-aminoquinolin-6-yl)methyl)-N-((5-chloro-1H-indazol-3-yl)methyl)isonicotinamide], for which the IC50 was 1000 to 10000 nM.

With `Nc1cnc2ccc(Cc3cc(C(=O)NCc4cnc5[nH]cc(Cl)c5c4)ccn3)cc2c1` [Example 300, 2-((3-aminoquinolin-6-yl)methyl)-N-((3-chloro-1H-pyrrolo[2,3-b]pyridin-5-yl)methyl)isonicotinamide], the IC50 lay in the range of 1000 to 10000 nM.

As to `Nc1cnc2ccc(Cc3cc(C(=O)NCc4ccc5[nH]cc(Cl)c5c4F)ccn3)cc2c1` [Example 301, 2-((3-aminoquinolin-6-yl)methyl)-N-((3-chloro-4-fluoro-1H-indol-5-yl)methyl)isonicotinamide], the 50% inhibitory concentration (IC50) is 100 to 1000 nM.

For the compound `O=C(NCc1cc2c(Cl)c[nH]c2cc1F)c1ccnc(Cc2ccc3ncc(N4CCCCC4)cc3c2)c1` [Example 302, N-((3-chloro-6-fluoro-1H-indol-5-yl)methyl)-2-((3-(piperidin-1-yl)quinolin-6-yl)methyl)isonicotinamide], the half-maximal inhibitory concentration (IC50) lay within 1000 to 10000 nM.

`Nc1nccc2cc(CNC(=O)c3ccnc(Cc4ccc5ncc(N6CCCCC6)cc5c4)c3)ccc12` [Example 303, N-((1-aminoisoquinolin-6-yl)methyl)-2-((3-(piperidin-1-yl)quinolin-6-yl)methyl)isonicotinamide]: the 50% inhibitory concentration (IC50) is 1000 to 10000 nM.

Regarding `O=C(NCc1ccc2[nH]cc(Cl)c2c1F)c1ccnc(Cc2ccc3ncc(N4CCCCC4)cc3c2)c1` [Example 305, N-((3-chloro-4-fluoro-1H-indol-5-yl)methyl)-2-((3-(piperidin-1-yl)quinolin-6-yl)methyl)isonicotinamide], the IC50 is above 10000 nM.

Consider `O=C(NCc1cnc2[nH]cc(Cl)c2c1)c1ccnc(Cc2ccc3ncc(N4CCCCC4)cc3c2)c1` [Example 306, N-((3-chloro-1H-pyrrolo[2,3-b]pyridin-5-yl)methyl)-2-((3-(piperidin-1-yl)quinolin-6-yl)methyl)isonicotinamide], for which the concentration for half-maximal inhibition (IC50) fell in the range of 1000 to 10000 nM.

As for `O=C(NCc1cc2c(Cl)c[nH]c2cc1F)c1ccnc(Cc2ccc3ncc(N4CCCC4)cc3c2)c1` [Example 307, N-((3-chloro-6-fluoro-1H-indol-5-yl)methyl)-2-((3-(pyrrolidin-1-yl)quinolin-6-yl)methyl)isonicotinamide], the IC50 was 100 to 1000 nM.

Consider `O=C(NCc1n[nH]c2ccc(Cl)cc12)c1ccnc(Cc2ccc3ncc(N4CCCC4)cc3c2)c1` [Example 309, N-((5-chloro-1H-indazol-3-yl)methyl)-2-((3-(pyrrolidin-1-yl)quinolin-6-yl)methyl)isonicotinamide], for which the IC50 is 100 to 1000 nM.

On to `O=C(NCc1cnc2[nH]cc(Cl)c2c1)c1ccnc(Cc2ccc3ncc(N4CCCC4)cc3c2)c1` [Example 310, N-((3-chloro-1H-pyrrolo[2,3-b]pyridin-5-yl)methyl)-2-((3-(pyrrolidin-1-yl)quinolin-6-yl)methyl)isonicotinamide], for which the IC50 lay in the range of 100 to 1000 nM.

For `O=C(NCc1ccc2[nH]cc(Cl)c2c1F)c1ccnc(Cc2ccc3ncc(N4CCCC4)cc3c2)c1` [Example 311, N-((3-chloro-4-fluoro-1H-indol-5-yl)methyl)-2-((3-(pyrrolidin-1-yl)quinolin-6-yl)methyl)isonicotinamide], the half-inhibitory concentration (IC50) lay in the range of 100 to 1000 nM.

With `O=C(NCc1n[nH]c2ccc(Cl)cc12)c1ccnc(Cc2ccc3ncc(N4CCNCC4)cc3c2)c1` [Example 312, N-((5-chloro-1H-indazol-3-yl)methyl)-2-((3-(piperazin-1-yl)quinolin-6-yl)methyl)isonicotinamide], the 50% inhibitory concentration (IC50) is 1000 to 10000 nM.

Take `O=C(NCc1cc2c(Cl)c[nH]c2cc1F)c1ccnc(Cc2ccc3ncc(N4CCNCC4)cc3c2)c1` [Example 313, N-((3-chloro-6-fluoro-1H-indol-5-yl)methyl)-2-((3-(piperazin-1-yl)quinolin-6-yl)methyl)isonicotinamide]: the IC50 was in the range of 1000 to 10000 nM.

One may read the IC50 as the midpoint of a concentration-inhibition curve.
